The values that follow come from US9952300B2, “Dynamic contrast enhanced MRI method and agents for the assessment of the macromolecular transport within pathologic tissues” (BRACCO IMAGING S.P.A., priority 2012, dated 2018).

Each structure is given as a SMILES string. Marks after values point to notes of the source that are not given here.

The test system of data set [1] is A431 human epidermoid carcinoma xenografts. As to the kind of experiment: DCE-MRI with B22956/1 in A431 xenografts 24 h after PTX or vehicle (Example 5). The class given is in vivo, NCR athymic nude mice. The protocol:
Human epidermoid carcinoma cell line (A431) (supplied by ATCC) were cultured in DMEM (Dulbecco's Modified Eagle Medium) High Glucose medium (4.5 g/L glucose) (Sigma-Aldrich, Steinheim, Germany), supplemented with 10% heat-inactivated foetal bovine serum (Lonza, Verviers, Belgium), 2 mM glutamine (Lonza, Verviers, Belgium), 100 IU/mL penicillin and 100 μg/mL streptomycin (Lonza, Verviers, Belgium) and maintained in a humidified atmosphere with 5% CO2 at 37° C. Exponentially growing cells were harvested and washed two times with PBS. Two million A431 cells were resuspended in 0.1 mL PBS and injected subcutaneously in the right and left flank of each of the 6 week old female mice. Tumors development were followed daily after inoculation, initially by palpation and by caliper once the mass will be established, until the day of the sacrifice. Mice were distributed randomly into 2 groups (Treated and Control) on the day of initial drug treatment when the average tumor diameter reached 7-8 mm, measured by caliper.
Paclitaxel (PTX) (Indena S.p.A., Milan, Italy): PTX solution was prepared in 50% Cremophor EL and 50% ethanol as described in Example 4 and further diluted in saline immediately before use to a final concentration of 2 mg/mL. PTX was administered intravenously (i.v., singular administration) at a dose of 20 mg/kg.
To this extent, 8 mice were divided into 2 groups; 2 animals of each of the two obtained groups were treated with PTX and 2 with vehicle (CTRL). Treatments started 14 days after the tumor implant, when the tumor reached a diameter in the range 7-8 mm, measured by caliper. The animals were administered with PTX or with CTRL at day 14 from the tumor implant (considered as DAY1). 24 hours after the treatment with PTX or CTRL (DAY2) each animal was injected with B22956/1 (used as non-limiting example of contrast agent according to the invention) and imaged with DCE-MRI. MRI imaging was performed pre-contrast and at different time points post-contrast agents administration. […] At DAY3 all the mice were imaged in vivo by Optical Imaging (01); then FITC-Albumin (10 mg/mL) was injected and 5 minutes later the animals were sacrificed. Tumors were excised and a second Optical Imaging acquisition was performed ex vivo. Finally tumors were prepared for the histological examination.
B22956/1, (Bracco Imaging S.p.A., obtained as above referred) was used as MRI contrast agent (CA). B22956/1 was intravenously injected at the dose of 100 μmol/kg, with an administration volume of 4 mL/kg.
24 hours after the treatment with PTX or CTRL each animal was injected with the CA (B22956/1) and imaged with DCE-MRI. The contrast agent was injected intravenously at an injection rate of about 1 mL/min through a catheter placed in the tail vein of the animal. For MR imaging experiments, animals were pre-anaesthetized with isofluorane gas (about 1%) in a mixture of 33% O2 and 66% N2O and the anesthesia was then maintained by adjustment of gas level in function of breath rate. MRI imaging was performed at different time points post-contrast agents administration. In particular, pre-contrast coronal and axial Rare T2-weighted anatomical images were acquired with the optimized parameters for high resolution with a good contrast, to detect the tumour mass. 3D FLASH images (Fast Low Angle Shot; TR about 6-7 milliseconds) with variable flip angle θ (FA=5-90° were acquired before contrast agent injection to estimate the tumour and muscle longitudinal relaxation time by using matrix 128×128×8, slice thickness ˜1.5 mm, FOV ˜3.0×3.0 cm. The same sequences (FA=20°, TR about 6-7 milliseconds) were then acquired to follow CA dynamic in tumor and blood vessels after CA i.v. injection. Flow artifacts were avoided by placing two thick saturation bands just above and below the measured slices. […]

In another data set the target is Human Serum Albumin (Homo sapiens, UniProt P02768). The settings on record: literature; cited from earlier work.
[2] abbreviates: A431 tumors 24 h after PTX 20 mg/kg i.v., mean of 8 tumors.

Sequence of Human Serum Albumin (P02768 25-609): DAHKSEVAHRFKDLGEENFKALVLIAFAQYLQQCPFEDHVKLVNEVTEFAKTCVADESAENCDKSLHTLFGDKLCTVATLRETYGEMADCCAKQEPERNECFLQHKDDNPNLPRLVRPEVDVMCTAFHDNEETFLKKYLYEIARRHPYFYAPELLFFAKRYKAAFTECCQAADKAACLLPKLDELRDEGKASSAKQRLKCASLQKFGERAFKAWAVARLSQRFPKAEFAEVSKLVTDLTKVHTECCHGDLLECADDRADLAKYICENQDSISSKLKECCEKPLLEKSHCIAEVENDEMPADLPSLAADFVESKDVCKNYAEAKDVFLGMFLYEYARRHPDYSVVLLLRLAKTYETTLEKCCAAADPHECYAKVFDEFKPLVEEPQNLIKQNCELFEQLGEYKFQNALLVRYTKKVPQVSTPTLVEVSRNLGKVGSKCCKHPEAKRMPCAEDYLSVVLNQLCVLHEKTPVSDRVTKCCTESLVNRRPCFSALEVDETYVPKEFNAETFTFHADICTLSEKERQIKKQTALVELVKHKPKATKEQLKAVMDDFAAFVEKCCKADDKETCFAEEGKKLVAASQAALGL

Turning to `C[C@H](CCC(=O)[O-])[C@H]1CC[C@H]2[C@@H]3CC[C@@H]4C[C@@H](NC(=O)CC[C@@H](C(=O)[O-])N(CCN(CC(=O)[O-])CC(=O)[O-])CCN(CC(=O)[O-])CC(=O)[O-])CC[C@]4(C)[C@H]3C[C@H](O)[C@]12C.[Gd+3].[Na+].[Na+].[Na+]` [B22956/1, Gadocoletic acid trisodium salt], in data set [1] (mouse, in vivo), the “extravasation of the contrast agent within the first minute after injection” value is “negligible”. For the same compound, the “non-covalent binding with Human Serum Albumin” value at Human Serum Albumin is “about 95%”.

Consider `CC(=O)O[C@H]1C(=O)[C@@]2(C)[C@H]([C@H](OC(=O)c3ccccc3)[C@]3(O)C[C@H](OC(=O)[C@H](O)[C@@H](NC(=O)c4ccccc4)c4ccccc4)C(C)=C1C3(C)C)[C@]1(OC(C)=O)CO[C@@H]1C[C@@H]2O` [PTX, Paclitaxel], for which the “AUC10.20 (of B22956/1), Mean” value in data set [1] (A431 tumors 24 h after PTX 20 mg/kg i.v., 10 to 20 min post injection, mean of 8 tumors) is 27*. Besides, the “AUC20.30 (of B22956/1), Mean” value in data set [1] (A431 tumors 24 h after PTX 20 mg/kg i.v., 20 to 30 min post injection, mean of 8 tumors) is on record as 25.3**. Besides, the “ktrans (of B22956/1), Mean” value in data set [1] (A431 tumors 24 h after PTX 20 mg/kg i.v., B22956/1 100 μmol/kg, mean of 8 tumors) was 0.0255*. Besides, in data set [1] (setting [2]), the “AVGENH (of B22956/1), Mean” value is 54*; the “EARLYAUCRATIO (of B22956/1), Mean” value stood at 0.036; the “IAUC1 (of B22956/1), Mean” value was 0.8; the “LATEAUCRATIO (of B22956/1), Mean” value was 1.14**. Moreover, in data set [1] (setting [2]), the “fPV (of B22956/1), Mean” value amounted to 0.038 and the “kep (of B22956/1), Mean” value worked out at 0.112.
